Structures can show the parent of a compound that is named as a salt.
Assays:
Type in all cases: cell-based
[1] = test system: Escherichia coli XNWB 0009; test: MIC assay of test compounds combined with ampicillin (8 μg/mL); conditions: ampicillin 8 μg/mL fixed
Method: (§1) The bacterial strains used for the minimum inhibitory concentration (MIC) test were frozen in a −80° C. ULT freezer and thawed 2 days before use. A small amount of frozen bacterial strains were scraped using a sterile inoculating loop, streaked onto a TSA solid culture dish for inoculation, and then cultured for 20-24 h at 35±2° C. in a normal atmospheric environment.
(§2) 5-10 colonies with similar morphology were picked from the culture dish using a sterile inoculating loop and then re-streaked onto a suitable solid culture dish. Then the dish was placed into a normal incubator for culture for 20-24 h at 35±2° C.
(§3) 5-10 single bacterial colonies were picked from the solid culture dish, resuspended in 500 μL of 0.9% NaCl, and adjusted to an OD600 of 0.1-0.15 with a spectrophotometer.
(§4) The bacteria were then diluted 300-fold with 1.1×CAMHB.
(§5) Test compounds of columns A-H: having a highest final test concentration of 64 μg/mL or 32 μg/mL, 2-fold diluted.
(§6) Dilution of test compounds: All test compounds were dissolved and diluted in dimethylsulfoxide (DMSO). 170 μL of 3.2 mg/mL (50*64 μg/mL) compound was transferred to wells (A1-H1) of column 1 of a dilution master plate and then 85 μL of DMSO was transferred to wells of other columns. Each compound was diluted 2-fold in sequence (i.e., 85 μL of compound was pipetted from column 1 into column 2 and mixed uniformly, 85 μL of compound was pipetted from column 2 into column 3 and mixed uniformly, then 85 μL of compound was pipetted from column 3 into column 4 and mixed uniformly, and so on until the dilution was done in column 11).
(§7) Preparation of an additive of ampicillin: Ampicillin was dissolved in ddH2O. 30 μL of 100 μg/mL (12.5×8 μg/mL) ampicillin was transferred to columns 1-11 of an additive plate, followed by the addition of 30 μL of ddH2O to column 12.
(§8) 2 μL of each compound in the dilution master plate of the test compounds was transferred to the corresponding well of the assay plates. In the mean time, 2 μL of 100% DMSO was transferred to the compound-free wells (GC and SC wells). (1) 8 μL of imipenem in the additive plate of imipenem was transferred to the corresponding wells of the assay plates; (2) 8 μL of ceftazidime in the additive plate of ceftazidime was transferred to the corresponding wells of the assay plates; (3) 8 μL of ampicillin in the additive plate of ampicillin was transferred to the corresponding wells of the assay plates.
(§9) 90 μL of corresponding bacterial inocula were added to wells (except for SC wells) of the assay plates.
(§10) After addition, the 6 assay plates were covered by sterile covers. The mixtures in the assay plates were centrifuged by a centrifuge at 1000 rpm for 30 s, and mixed uniformly by oscillating with a microplate oscillator at 800 rpm for 1 min, and then cultured in a common incubator for 16-20 h at 35±2° C.
(§11) The minimum inhibitory concentration of each compound was recorded by reference to guidelines from the Clinical and Laboratory Standards Institute.
(§12) The minimum inhibitory concentrations of the compounds of the present invention and antibiotics (imipenem, ceftazidime, and ampicillin) against 11 strains of bacteria were tested in this study by reference to the medium microdilution method as indicated by the Clinical and Laboratory Standards Institute. The effect of the test compounds in combination with imipenem, ceftazidime, and ampicillin was also tested. Compounds were diluted two-fold in 96-well plates from the highest detection concentration of 64 μg/mL. The test compounds were tested in combination with a fixed concentration of imipenem (4 μg/mL), ceftazidime (8 μg/mL), and ampicillin (8 μg/mL). The bacterial inocula in the assay plates were resuscitated from TSA and diluted in CAMHB, while growth controls (GC wells) and sterile controls (SC wells) were set up in the assay plates. […]

[2] = test system: Escherichia coli XNWB 0010; test: as above; conditions: ampicillin 8 μg/mL fixed
Method: as §1, §2, §3, §4, §5, §6, §7, §8, §9, §10, §11, §12

[3] = test system: Enterobacter aerogenes XNWB 0011; test: as above; conditions: ampicillin 8 μg/mL fixed
Method: as §1, §2, §3, §4, §5, §6, §7, §8, §9, §10, §11, §12

[4] = test system: Pseudomonas aeruginosa XNWB 0008; test: MIC assay of test compounds combined with ceftazidime (8 μg/mL); conditions: ceftazidime 8 μg/mL fixed
Summary of the method: (§13)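 MIC values are the lowest concentrations of test compound that inhibited visible growth, read per CLSI after 16-20 h at 35±2 °C in CAMHB microdilution plates with the companion antibiotic held constant. Bacteria came from TSA cultures adjusted to OD600 0.1-0.15 and diluted 300-fold.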

[5] = test system: Klebsiella pneumoniae XNWB 0003; test: as above; conditions: ceftazidime 8 μg/mL fixed
Summary of the method: as §13

[6] = test system: Klebsiella pneumoniae XNWB 0006; test: as above; conditions: ceftazidime 8 μg/mL fixed
Summary of the method: as §13

[7] = test system: Klebsiella pneumoniae XNWB 0005; test: as above; conditions: ceftazidime 8 μg/mL fixed
Summary of the method: as §13

[8] = test system: Klebsiella pneumoniae XNWB 0001; test: as above; conditions: ceftazidime 8 μg/mL fixed
Summary of the method: as §13

[9] = test system: Acinetobacter baumannii XNWB 0007; test: as above; conditions: ceftazidime 8 μg/mL fixed
Summary of the method: as §13

[10] = test system: Klebsiella pneumoniae XNWB 0004; test: as above; conditions: ceftazidime 8 μg/mL fixed
Summary of the method: as §13

[11] = test system: Klebsiella pneumoniae XNWB 0002; test: as above; conditions: ceftazidime 8 μg/mL fixed
Summary of the method: as §13

[12] = test system: Pseudomonas aeruginosa XNWB 0008; test: MIC assay of test compounds combined with imipenem (4 μg/mL); conditions: imipenem 4 μg/mL fixed
Summary of the method: as §13

[13] = test system: Klebsiella pneumoniae XNWB 0003; test: as above; conditions: imipenem 4 μg/mL fixed
Summary of the method: as §13

[14] = test system: Klebsiella pneumoniae XNWB 0006; test: as above; conditions: imipenem 4 μg/mL fixed
Summary of the method: as §13

[15] = test system: Klebsiella pneumoniae XNWB 0005; test: as above; conditions: imipenem 4 μg/mL fixed
Summary of the method: as §13

[16] = test system: Klebsiella pneumoniae XNWB 0001; test: as above; conditions: imipenem 4 μg/mL fixed
Summary of the method: as §13

[17] = test system: Acinetobacter baumannii XNWB 0007; test: as above; conditions: imipenem 4 μg/mL fixed
Summary of the method: as §13

[18] = test system: Klebsiella pneumoniae XNWB 0004; test: as above; conditions: imipenem 4 μg/mL fixed
Summary of the method: as §13

[19] = test system: Klebsiella pneumoniae XNWB 0002; test: as above; conditions: imipenem 4 μg/mL fixed
Summary of the method: as §13

Structure (SMILES)	The minimum concentration of test compounds combined with ampicillin (8 μg/mL) for bacteriostasis [1]	The minimum concentration of test compounds combined with ampicillin (8 μg/mL) for bacteriostasis [2]	The minimum concentration of test compounds combined with ampicillin (8 μg/mL) for bacteriostasis [3]	The minimum concentration of test compounds combined with ceftazidime (8 μg/mL) for bacteriostasis [4]	The minimum concentration of test compounds combined with ceftazidime (8 μg/mL) for bacteriostasis [5]	The minimum concentration of test compounds combined with ceftazidime (8 μg/mL) for bacteriostasis [6]	The minimum concentration of test compounds combined with ceftazidime (8 μg/mL) for bacteriostasis [7]	The minimum concentration of test compounds combined with ceftazidime (8 μg/mL) for bacteriostasis [8]	The minimum concentration of test compounds combined with ceftazidime (8 μg/mL) for bacteriostasis [9]	The minimum concentration of test compounds combined with ceftazidime (8 μg/mL) for bacteriostasis [10]	The minimum concentration of test compounds combined with ceftazidime (8 μg/mL) for bacteriostasis [11]	The minimum concentration of test compounds combined with imipenem (4 μg/mL) for bacteriostasis [12]	The minimum concentration of test compounds combined with imipenem (4 μg/mL) for bacteriostasis [13]	The minimum concentration of test compounds combined with imipenem (4 μg/mL) for bacteriostasis [14]	The minimum concentration of test compounds combined with imipenem (4 μg/mL) for bacteriostasis [15]	The minimum concentration of test compounds combined with imipenem (4 μg/mL) for bacteriostasis [16]	The minimum concentration of test compounds combined with imipenem (4 μg/mL) for bacteriostasis [17]	The minimum concentration of test compounds combined with imipenem (4 μg/mL) for bacteriostasis [18]	The minimum concentration of test compounds combined with imipenem (4 μg/mL) for bacteriostasis [19]
O=C1N2C[C@H](N1OS(=O)(=O)O)C1(CC1)C[C@H]2c1cc(C2CCNC2)on1 (stereo partly drawn) [Example 45, (1R,4S)-6-oxo-4-(5-(pyrrolidin-3-yl)isoxazol-3-yl)-5,7-diazaspiro[bicyclo[3.2.1]octane-2,1′-cyclopropan]-7-yl sulfate]	A (A: <8 μg/mL)	A (A: <8 μg/mL)	A (A: <8 μg/mL)	B (B: 8-16 μg/mL)	A (A: <8 μg/mL)	A (A: <8 μg/mL)	A (A: <8 μg/mL)	A (A: <8 μg/mL)	C (C: 16-128 μg/mL)	B (B: 8-16 μg/mL)	A (A: <8 μg/mL)	A (A: <8 μg/mL)	A (A: <8 μg/mL)	A (A: <8 μg/mL)	A (A: <8 μg/mL)	A (A: <8 μg/mL)	C (C: 16-128 μg/mL)	A (A: <8 μg/mL)	A (A: <8 μg/mL)
NCCc1nnc([C@@H]2CC3(CC3)[C@@H]3CN2C(=O)N3OS(=O)(=O)O)o1 [Example 4, (1R,4S)-4-(5-(2-aminoethyl)-1,3,4-oxadiazol-2-yl)-6-oxo-5,7-diazaspiro[bicycle[3.2.1]octane-2,1′-cyclopropan]-7-yl sulfate]	A (A: <8 μg/mL)	A (A: <8 μg/mL)	B (B: 8-16 μg/mL)	C (C: 16-128 μg/mL)	A (A: <8 μg/mL)	A (A: <8 μg/mL)	A (A: <8 μg/mL)	A (A: <8 μg/mL)	C (C: 16-128 μg/mL)	A (A: <8 μg/mL)	A (A: <8 μg/mL)	A (A: <8 μg/mL)	A (A: <8 μg/mL)	A (A: <8 μg/mL)	A (A: <8 μg/mL)	A (A: <8 μg/mL)	B (B: 8-16 μg/mL)	A (A: <8 μg/mL)	A (A: <8 μg/mL)
O=C1N2C[C@H](N1OS(=O)(=O)O)C1(CC1)C[C@H]2c1cc(C2CCNCC2)on1 [Example 43, (1R,4S)-6-oxo-4-(5-(piperidin-4-yl)isoxazol-3-yl)-5,7-diazaspiro[bicyclo[3.2.1]octane-2,1′-cyclopropan]-7-yl sulfate]	A (A: <8 μg/mL)	A (A: <8 μg/mL)	B (B: 8-16 μg/mL)	B (B: 8-16 μg/mL)	B (B: 8-16 μg/mL)	A (A: <8 μg/mL)	A (A: <8 μg/mL)	A (A: <8 μg/mL)	C (C: 16-128 μg/mL)	B (B: 8-16 μg/mL)	A (A: <8 μg/mL)	A (A: <8 μg/mL)	A (A: <8 μg/mL)	A (A: <8 μg/mL)	A (A: <8 μg/mL)	A (A: <8 μg/mL)	C (C: 16-128 μg/mL)	A (A: <8 μg/mL)	A (A: <8 μg/mL)
